Test results published in patent US12594248B2, “Stress management in human subjects in need thereof” (YEDA RESEARCH AND DEVELOPMENT CO. LTD., priority 2020, dated 2026).

Experiments:
male subjects [1] = assay: Subjective stress level reports under a lecture stressor, Example 1; type: in vivo, human; conditions: scale 0-10, FIG. 1
Experimental: For experiments 0.083M of Hexadecanal (HEX) dissolved in propylene glycol was used. Heating it for a few minutes eases the process (37° C. is sufficient). The mixture was aliquoted into daily portions, such that we thawed a daily serving prior to experiments. Participants were exposed to 100 ul of 0.083M HEX in 10 consecutive sniffs from a jar, and then taped a band aid with 30 ul on the upper lip. The band aid stayed to assure exposure throughout the experiment. Since propylene glycol has an odor, we used a masking odor.
• 30 male subjects, 15 using Olfactory Blue (OB—Hexadecanal) and 15 with placebo. […]
• Subjects—men only [mean age: 24.97 (SD=1.92)]. • An isolated office space (to avoid subject distraction) is prepared with a table and chair. • The computer, Modify standalone and the video recording are positioned and prepared. […] End of experiment • Experimenter debriefs subject—asks for general comments and feeling • Subjective stress level • End of test Measurements The following physiological measurements are recorded: 1. […] The following psychological/subjective measurements are recorded: 2. Memory test—the ability to remember a series of words seen one after the other and after conducting several simple mathematical tasks; scored by counting number of words correctly remembered. […] Subjective stress level—the stress level the subject feels at that moment; recorded on the computer. […]

male subjects [2] = assay: Stroop test (attention, cognitive performance), Example 1; type: in vivo, human; conditions: FIG. 2
Experimental: (§1) • 30 male subjects, 15 using Olfactory Blue (OB—Hexadecanal) and 15 with placebo. […] Equipment • Computer/laptop with test script and cognitive tests • HR wrist monitor and Central unit • Video camera • 2×50 ml identical bottles—one with OB (solvent+Hexadecanal) and one only with dipropylene glycol (DPG) Goals and KPIs.
• Subjects—men only [mean age: 24.97 (SD=1.92)]. • An isolated office space (to avoid subject distraction) is prepared with a table and chair. • The computer, Modify standalone and the video recording are positioned and prepared. Test Running • Subject is introduced and asked to take place in front of computer • Experimenter briefs the subject on the test procedure in general • Subject fills in a consent form (including GDPR consent) and signs the receipt for the money (see form in annex) • Subject fills in personal data on the computer • Experimenter presents the scent bottle (OB or Placebo) given to them by an assistant (who records which bottle has been given) to the subject to smell five sniffs within one minute (2% in the bottle). • Subject is asked about their subjective stress level on a scale between 0 (no stress at all) to 10 (extreme stress)—questionnaire on the computer • Experimenter completes the briefing and introduce 3 assignments to the participants: a memory task, a Stroop task and the stress manipulation—subject will have to give a 5 min lecture to an audience on one of three given topics—stressor. • Subject starts the experiment by following instructions on the computer: 1. […] End of experiment • Experimenter debriefs subject—asks for general comments and feeling • Subjective stress level • End of test Measurements The following physiological measurements are recorded: 1. […] The following psychological/subjective measurements are recorded: 2. Memory test—the ability to remember a series of words seen one after the other and after conducting several simple mathematical tasks; scored by counting number of words correctly remembered. […] Subjective stress level—the stress level the subject feels at that moment; recorded on the computer.

male subjects [3] = assay: Memory test (free recall), Example 1; type: in vivo, human; conditions: FIG. 3
Experimental: as §1
• Subjects—men only [mean age: 24.97 (SD=1.92)]. • An isolated office space (to avoid subject distraction) is prepared with a table and chair. • The computer, Modify standalone and the video recording are positioned and prepared. […] End of experiment • Experimenter debriefs subject—asks for general comments and feeling • Subjective stress level • End of test Measurements The following physiological measurements are recorded: 1. […] The following psychological/subjective measurements are recorded: 2. Memory test—the ability to remember a series of words seen one after the other and after conducting several simple mathematical tasks; scored by counting number of words correctly remembered. […] Subjective stress level—the stress level the subject feels at that moment; recorded on the computer.

[4] = system: men and women participants; assay: Subjective stress level reports, men and women, Example 2; type: in vivo, human; conditions: two-way ANOVA, gender and fragrance condition; F(1,56)=5.1, p=0.03; no interaction; HEX vs PLACEBO; FIG. 4
Experimental: (§2) Sixty-four participants (35 women) with an average age of 27.34 (SD 4.65), half participated in the HEX group and the other half in the PLACEBO group. The study was conducted in Ra'anana, Israel in a rented office using a laptop computer.
(§3) Participants came in separately into the Ra'anana office, a research assistant (RA) welcomed them. After a short brief, participants were introduced with a bottle of liquid and were required to smell the bottle for 1 minute (with the instruction to breath normally). After being exposed to the smell, the RA explained about the three tasks (memory, attention, public speaking—the stressor). Participants reported their stress level before and after each assignment (7 times). Just before the last task, participants were informed that this task was canceled and then were asked to report their stress level for the last time.
The first stress report was given pre-manipulation; therefore, it may shed light upon the general stress level of the participants. Mean score for first stress report was 3.32 (SD 1.68) for men and 2.59 (SD 1.76) for women.
A two-way ANOVA was conducted with average stress (measures 2-6) as a dependent variable and gender and fragrance condition as the independent variables. […] Main effect for fragrance was also significant, F(1,56)=5.1, p=0.03. No interaction was found (F<0.1). […]

[5] = system: men and women participants; assay: Average heart rate (HR) along the experiment, Example 2; type: in vivo, human; conditions: men and women together; FIG. 5, p<0.0001
Experimental: as §2, §3

[6] = system: men and women participants; assay: Memory test (free recall), Example 2; type: in vivo, human; conditions: HEX vs placebo group
Experimental: as §2, §3

[7] = system: men and women participants; assay: Attention test (Stroop test), Example 2; type: in vivo, human; conditions: HEX vs placebo group
Experimental: as §2, §3

[8] = system: mouse OR37 receptor subtype B; conditions: Klein et al [15]; cited from earlier work
[9] = system: mouse OR37 receptor subtype C; conditions: Klein et al [15]; cited from earlier work
[10] = system: mouse OR37 receptor subtype A; conditions: Klein et al [15]; cited from earlier work

For `CCCCCCCCCCCCCCCC=O` [HEX, Hexadecanal], the “subjective stress report, difference between groups” value (male subjects [1]; stress0 (baseline) and stress4 (end, after being told there will be no lecture)) was “no difference”, the “subjective stress report vs Placebo group” value (male subjects [1]; stress1, stress2, stress3 (after assignments and smelling, after memory test, after Stroop test), 15 vs 15 men, p<0.01) was “significantly lower degree” and the “Stroop test number of errors, blue vs placebo” value (male subjects [2]) was “No differences”. For the same compound, the “Stroop test reaction time, blue vs placebo” value (male subjects [2]) was “No differences”, the “cognitive performance relative to placebo” value (male subjects [2]; as evidenced by the Stroop test) was “does not affect cognitive performance” and the “free recall assignment, difference between conditions” value (male subjects [3]) was “no differences”. The “average stress (measures 2-6), main effect for fragrance” value [4] was “significant”, the “average HR vs placebo group” value [5] was “lower” and the “memory (free recall), difference between groups” value [6] was “did not differ”. The “attention (Stroop test), difference between groups” value [7] was “did not differ” and the “activation of OR37 subtype B” value [8] was “activated”.

In the case of `CCCCCCCCCCCCCCCCC=O` [heptadecanal], the “activation of OR37 subtype C” value [9] is given as “activated”.

In the case of `CCCCCCCCCCCCCCC=O` [pentadecanal], the “activation of OR37 subtype A” value [10] is given as “activated”.
